This assay deals with rat breast cancer cell MTF7. Briefly: Action of 5ALA on MTF7 cells in the cell microchip (fluorescence and growth after Ar ion laser irradiation). The class given is cell-based. The protocol:
The cell microchip prepared in Example 1 was used to examine the action of […] (5ALA) on rat breast cancer cell MTF7 according to a method described in Journal of Japan Society for Laser Surgery and Medicine, Vol. 17, No. 1, pp. 1-10 (1996).
MTF7 was provided by Dr. Stephan P. Tomasovic, M. D. Anderson Cancer Center, […], US. MTF7 was proliferated in an a-MEM medium (Sigma Corporation) supplemented with 10% fetal calf serum (FCS) in an incubator for cell culture (37° C. in 5% CO2 under humidity).
The cell microchip (FIG. 4) prepared in Example 1 was placed in a 90 mmf Petri dish, and the flow channel (A) 33, flow channel (B) 34 and flow channel (C) 35 were filled with the above medium. […]
Then the cell microchip wherein the MTF7 cells had been proliferated was removed from the Petri dish, and the above medium was injected via a micro pump into the liquid reservoir 37 of the flow channel (A) 33, and while the above medium containing 5ALA manufactured by Sigma Corporation) at various concentrations (25, 50, 100, 200 and 400 mg/ml) was injected into the liquid reservoir 37 of the flow channel (B) 34, the cells were observed under a fluorescence microscope equipped with the incubator. […] The cells into which the 5ALA-containing medium had not been injected emitted no fluorescence.

Turning to `NCC(=O)CCC(=O)O` [5ALA, d-aminolevulinic acid], under “MTF7 cells at 3-pronged junction, medium containing 5ALA at 25, 50, 100, 200 and 400 mg/ml, irradiated with Ar ion laser at 488 nm, 200 mW”, the “emission of fluorescence under a fluorescence microscope” value is “emission of fluorescence was observed”. Besides, the “cell growth / survival on continued culture after laser irradiation” value (MTF7 cells emitting fluorescence (5ALA-containing medium), observed with time under a microscope after Ar ion laser irradiation at 488 nm) was “terminated their growth and fell eventually into death”.

These data come from US20060147898A1, “Cell microchip” (NITTO DENKO CORPORATION, priority 2003, published 2006).
